Legend:
Assay in all cases: viability relative to DMSO control (fraction); higher = less drug effect (more viable cells)
Conditions in all cases: 48 h
[1] = compound: CC#CC(=O)N1CC[C@@H](n2c(=O)n(-c3ccc(Oc4ccccc4)cc3)c3c(N)ncnc32)C1 [ONO-4059]
In short: (§1)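 Viability was quantified by CellTiter-Glo luminescence and related to the median of 16 inner DMSO wells. Before that, primary mononuclear tumour cells, fresh or cryopreserved and Ficoll-isolated from blood or bone marrow or prepared from processed lymph node, were plated at 4 × 10^4 cells per well in 384-well plates containing pre-plated compounds at five concentrations, one well each. Plates were incubated in RPMI-1640 with penicillin/streptomycin, L-glutamine and human serum at 37 °C and 5% CO2 for 48 h.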

[2] = compound: CC(C)(C)c1cc(NC(=O)Nc2ccc(-c3cn4c(n3)sc3cc(OCCN5CCOCC5)ccc34)cc2)no1 [Quizartinib]
In short: as §1

[3] = compound: CC(C)(O)CNc1nc(Nc2ccnc(C(F)(F)F)c2)nc(-c2cccc(C(F)(F)F)n2)n1 [AG-221 (Enasidinib)]
In short: as §1

[4] = compound: CC(C)C[C@H](NC(=O)[C@H](Cc1ccccc1)NC(=O)c1cnccn1)B(O)O [Bortezomib]
In short: as §1

[5] = compound: CC(C)N(C[C@H]1O[C@@H](n2cnc3c(N)ncnc32)[C@H](O)[C@@H]1O)[C@H]1C[C@@H](CCc2nc3cc(C(C)(C)C)ccc3[nH]2)C1 [EPZ-5676]
In short: as §1

[6] = compound: CCCS(=O)(=O)Nc1ccc(F)c(C(=O)c2c[nH]c3ncc(-c4ccc(Cl)cc4)cc23)c1F [Vemurafenib]
In short: as §1

[7] = compound: CC[C@@H]1C(=O)N(C)c2cnc(Nc3ccc(C(=O)N[C@H]4CC[C@H](N5CCN(CC6CC6)CC5)CC4)cc3OC)nc2N1C(C)C [BI6727]
In short: as §1

[8] = compound: COc1cc(OC)c(/C=C/S(=O)(=O)Cc2ccc(OC)c(NCC(=O)O)c2)c(OC)c1 [Rigosertib]
In short: as §1

[9] = compound: COc1nc(N)nc2c1ncn2[C@@H]1O[C@H](CO)[C@@H](O)[C@@H]1O [Nelarabine]
In short: as §1

[10] = compound: Cc1[nH]c2ccccc2c1CCNCc1ccc(/C=C/C(=O)NO)cc1 [Panobinostat]
In short: as §1

[11] = compound: Cc1ccc(NC(=O)c2ccc(CN3CCN(C)CC3)cc2)cc1Nc1nccc(-c2cccnc2)n1 [Imatinib]
In short: as §1

[12] = compound: NC(=O)c1ccc(I)c([N+](=O)[O-])c1 [Iniparib]
In short: as §1

[13] = compound: Nc1nc(Cl)nc2c1ncn2[C@H]1C[C@H](O)[C@@H](CO)O1 [Cladribine]
In short: as §1

[14] = compound: Nc1nc2n[nH]nc2c(=O)[nH]1 [8-Azaguanin]
In short: as §1

[15] = compound: O=C(NCC1(c2nc(-c3ccccc3)cs2)CCOCC1)c1cccc(-c2noc(C(F)(F)F)n2)c1 [TMP269]
In short: as §1

## primary DLBCL patient cells (S082)
[1]; 0.0016 µM
  viability: 0.786
[1]; 0.008 µM
  viability: 0.587
[1]; 0.04 µM
  viability: 0.483
[1]; 0.2 µM
  viability: 0.413
[1]; 1 µM
  viability: 0.391
[2]; 0.016 µM
  viability: 1.06
[2]; 0.08 µM
  viability: 1.13
[2]; 0.4 µM
  viability: 1.01
[2]; 2 µM
  viability: 1.07
[2]; 10 µM
  viability: 1.15
[3]; 0.024 µM
  viability: 0.848
[3]; 0.12 µM
  viability: 0.871
[3]; 0.6 µM
  viability: 1.09
[3]; 3 µM
  viability: 1
[3]; 15 µM
  viability: 1.06
[4]; 0.008 µM
  viability: 0.846
[4]; 0.04 µM
  viability: 0.987
[4]; 0.2 µM
  viability: 0.842
[4]; 1 µM
  viability: 0.899
[4]; 5 µM
  viability: 0.882
[5]; 0.0032 µM
  viability: 0.925
[5]; 0.016 µM
  viability: 1.1
[5]; 0.08 µM
  viability: 0.88
[5]; 0.4 µM
  viability: 0.953
[5]; 2 µM
  viability: 1.1
[6]; 0.024 µM
  viability: 0.979
[6]; 0.12 µM
  viability: 0.989
[6]; 0.6 µM
  viability: 0.988
[6]; 3 µM
  viability: 1.03
[6]; 15 µM
  viability: 1.05
[7]; 0.024 µM
  viability: 0.916
[7]; 0.12 µM
  viability: 0.857
[7]; 0.6 µM
  viability: 0.623
[7]; 3 µM
  viability: 0.351
[7]; 15 µM
  viability: 0.256
[8]; 0.008 µM
  viability: 0.954
[8]; 0.04 µM
  viability: 0.973
[8]; 0.2 µM
  viability: 0.931
[8]; 1 µM
  viability: 0.771
[8]; 5 µM
  viability: 0.524
[9]; 0.024 µM
  viability: 1.06
[9]; 0.12 µM
  viability: 1.05
[9]; 0.6 µM
  viability: 0.961
[9]; 3 µM
  viability: 1
[9]; 15 µM
  viability: 0.76
[10]; 0.00064 µM
  viability: 0.781
[10]; 0.0032 µM
  viability: 0.404
[10]; 0.016 µM
  viability: 0.0415
[10]; 0.08 µM
  viability: 0.0242
[10]; 0.4 µM
  viability: 0.0275
[11]; 0.016 µM
  viability: 1.08
[11]; 0.4 µM
  viability: 1.2
[11]; 2 µM
  viability: 1.16
[11]; 10 µM
  viability: 1.36
[12]; 0.024 µM
  viability: 1.09
[12]; 0.12 µM
  viability: 1.06
[12]; 0.6 µM
  viability: 1.01
[12]; 3 µM
  viability: 1.06
[12]; 15 µM
  viability: 1.01
[13]; 0.024 µM
  viability: 0.858
[13]; 0.12 µM
  viability: 0.613
[13]; 0.6 µM
  viability: 0.476
[13]; 3 µM
  viability: 0.442
[13]; 15 µM
  viability: 0.399
[14]; 0.032 µM
  viability: 1.01
[14]; 0.16 µM
  viability: 1.05
[14]; 0.8 µM
  viability: 0.976
[14]; 4 µM
  viability: 0.918
[14]; 20 µM
  viability: 0.531
[15]; 0.024 µM
  viability: 0.909
[15]; 0.12 µM
  viability: 0.885
[15]; 0.6 µM
  viability: 0.891
[15]; 3 µM
  viability: 0.819
[15]; 15 µM
  viability: 0.873

## primary FL patient cells (S022)
[1]; 0.0016 µM
  viability: 1.05
[1]; 0.008 µM
  viability: 1.02
[1]; 0.04 µM
  viability: 1.06
[1]; 0.2 µM
  viability: 0.985
[1]; 1 µM
  viability: 1.13
[2]; 0.016 µM
  viability: 1.01
[2]; 0.08 µM
  viability: 1.04
[2]; 0.4 µM
  viability: 1.01
[2]; 2 µM
  viability: 1.21
[2]; 10 µM
  viability: 0.998
[3]; 0.024 µM
  viability: 0.807
[3]; 0.12 µM
  viability: 0.799
[3]; 0.6 µM
  viability: 0.781
[3]; 3 µM
  viability: 0.67
[3]; 15 µM
  viability: 0.687
[4]; 0.008 µM
  viability: 1
[4]; 0.04 µM
  viability: 1.05
[4]; 0.2 µM
  viability: 0.957
[4]; 1 µM
  viability: 0.931
[4]; 5 µM
  viability: 0.885
[5]; 0.0032 µM
  viability: 0.873
[5]; 0.016 µM
  viability: 1
[5]; 0.08 µM
  viability: 0.884
[5]; 0.4 µM
  viability: 0.856
[5]; 2 µM
  viability: 0.96
[6]; 0.024 µM
  viability: 0.992
[6]; 0.12 µM
  viability: 1.17
[6]; 0.6 µM
  viability: 0.965
[6]; 3 µM
  viability: 1.05
[6]; 15 µM
  viability: 1.22
[7]; 0.024 µM
  viability: 1.04
[7]; 0.12 µM
  viability: 0.901
[7]; 0.6 µM
  viability: 0.959
[7]; 3 µM
  viability: 0.785
[7]; 15 µM
  viability: 0.178
[8]; 0.008 µM
  viability: 1.02
[8]; 0.04 µM
  viability: 0.951
[8]; 0.2 µM
  viability: 1.02
[8]; 1 µM
  viability: 0.919
[8]; 5 µM
  viability: 0.865
[9]; 0.024 µM
  viability: 1.03
[9]; 0.12 µM
  viability: 1.1
[9]; 0.6 µM
  viability: 0.93
[9]; 3 µM
  viability: 0.902
[9]; 15 µM
  viability: 0.811
[10]; 0.00064 µM
  viability: 0.899
[10]; 0.0032 µM
  viability: 0.843
[10]; 0.016 µM
  viability: 0.514
[10]; 0.08 µM
  viability: 0.23
[10]; 0.4 µM
  viability: 0.17
[11]; 0.08 µM
  viability: 1.06
[11]; 0.4 µM
  viability: 1.05
[11]; 2 µM
  viability: 0.946
[11]; 10 µM
  viability: 0.909
[12]; 0.024 µM
  viability: 1.1
[12]; 0.12 µM
  viability: 0.916
[12]; 0.6 µM
  viability: 0.945
[12]; 3 µM
  viability: 0.937
[12]; 15 µM
  viability: 0.92
[13]; 0.024 µM
  viability: 0.814
[13]; 0.12 µM
  viability: 0.827
[13]; 0.6 µM
  viability: 0.55
[13]; 3 µM
  viability: 0.447
[13]; 15 µM
  viability: 0.333
[14]; 0.032 µM
  viability: 0.987
[14]; 0.16 µM
  viability: 1.01
[14]; 0.8 µM
  viability: 0.843
[14]; 4 µM
  viability: 0.582
[14]; 20 µM
  viability: 0.363
[15]; 0.024 µM
  viability: 1.22
[15]; 0.12 µM
  viability: 0.977
[15]; 0.6 µM
  viability: 1.2
[15]; 3 µM
  viability: 0.958
[15]; 15 µM
  viability: 0.915

— the supplement of paper PMC10733146
